#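 A five-concentration, 48-hour dose response in 96-well plates underlies each endpoint, interpolated linearly between surrounding concentrations. GI50 is the concentration that inhibits growth by half. TGI is the concentration that stops growth completely.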
# Tests used:
# Assay in all cases: NCI anticancer screen, dose series, 48 h
# [1] = tested on: 786-0 renal
# [2] = tested on: COLO 205 colon
# [3] = tested on: HL-60(TB) leukemia
# [4] = tested on: SK-OV-3 ovarian
# [5] = tested on: SNB-19 CNS
# [6] = tested on: SNB-75 CNS
# [7] = tested on: CCRF-CEM leukemia
# [8] = tested on: LOX IMVI melanoma
# [9] = tested on: OVCAR-3 ovarian
# [10] = tested on: MDA-MB-231 breast
SMILES,GI50 [1] [µM],TGI [1] [µM],GI50 [2] [µM],TGI [2] [µM],GI50 [3] [µM],TGI [3] [µM],GI50 [4] [µM],TGI [4] [µM],GI50 [5] [µM],TGI [5] [µM],GI50 [6] [µM],TGI [6] [µM],TGI [7] [µM],TGI [8] [µM],TGI [9] [µM],GI50 [8] [µM],GI50 [10] [µM],TGI [10] [µM],GI50 [9] [µM],GI50 [7] [µM]
CN(CCCn1c2c(c3ccccc3c1=O)C(=O)c1ccccc1-2)CCCn1c2c(c3ccccc3c1=O)C(=O)c1ccccc1-2,0.0214,1.39,1.64,> 45.7,3.65,12.6,5.45,19.7,0.081,28,1.74,5.21,–,–,–,–,–,–,–,–
COc1cc(/C=C2/C(=O)N(C(=O)OCC(C)C)C(Cc3cc(OC)c(OC)c(C)c3OC)C(=O)N2Cc2ccccc2)c(OC)c(C)c1OC (stereo not given),–,> 100,–,> 100,–,> 100,–,> 100,–,> 100,–,> 100,> 100,> 100,> 100,–,–,–,–,–
COc1cc(C(=O)O[C@H](C(=O)NCCCCCNC(=O)[C@@H](OC(=O)c2cc(OC)cc3c(C)cccc23)[C@]2(C)CO2)[C@]2(C)CO2)c2cccc(C)c2c1,< 0.01,0.0115,0.286,–,–,–,3.28,> 30.1,0.93,> 20.4,0.911,3.43,–,< 0.0138,10.6,< 0.01,0.893,4.03,1.61,–
CC(C)C1CC[C@@H](C)C[C@@]1(O)CC(N)=O (stereo not given in full),–,> 100,–,> 100,–,–,–,> 100,–,> 100,–,> 100,–,–,> 100,–,–,–,–,–
COc1ccc(Br)c(N/N=C2\CCCNC2=O)c1,–,> 100,–,> 100,–,> 100,–,> 100,–,> 100,–,> 100,> 100,> 100,> 100,–,–,–,–,–
COc1ccc2n[se]nc2c1,–,> 100,–,> 100,–,> 100,–,> 100,–,> 100,–,> 100,> 100,> 100,–,–,–,–,–,–
COC(=O)C1(C)CCC(c2ccc(C)cc2)=C(CC(=O)O)C1 (stereo not given),–,> 100,–,> 100,–,> 100,–,> 100,–,> 100,–,> 100,–,> 100,> 100,–,–,> 100,–,–
O=C([CH-]C(=O)c1ccccc1)c1ccccc1.O=C([CH-]C(=O)c1ccccc1)c1ccccc1.[La+3].[OH-].[OH3+],16,65.1,22.6,61.5,3.87,22.7,21.3,69.8,19.2,66.3,5.02,21.6,–,37.1,–,13.5,–,–,–,–
COC1CC(OS(=O)(=O)c2ccc([N+](=O)[O-])cc2)C(OC(=O)c2ccccc2)C(C)O1 (stereo not given),–,> 100,–,> 100,–,> 100,–,–,–,> 100,–,–,> 100,> 100,> 100,–,–,–,–,–
CN(C)CC/C(=N\Nc1ccc([N+](=O)[O-])cc1)c1ccccc1,–,27.1,–,28.5,–,16.3,–,29.8,–,28.9,–,17.6,23.6,18.1,31.2,–,–,–,–,–
CC(C)(C)c1ccc(Oc2nccc(-c3c(-c4ccc(F)cc4)ncn3C3CCNCC3)n2)cc1,4.22,8.12,3.69,7.46,4.64,9.1,4.35,7.8,3.73,7.42,2.89,6.15,–,7.49,7.77,3.43,3.87,7.39,4.25,–
Fc1ccc2c(c1)C1=NN(c3ccccc3)C(F)C1CO2 (stereo not given),12.8,> 50,–,30.9,17.9,> 50,25.3,> 50,26.6,> 50,9.01,32,–,24.1,19.1,10.5,5.36,13.6,6.14,–
CCOc1ccc2c(c1)[n+]([O-])c(-c1ccc(Cl)cc1)c(N)[n+]2[O-],–,> 100,–,> 100,–,> 100,–,> 100,–,> 100,–,> 100,–,–,> 100,–,–,–,–,–
CN1C(=Nc2ccccc2)SC1=Nc1ccccc1,–,> 100,–,> 100,–,> 100,–,> 100,–,> 100,–,40.3,> 100,> 100,> 100,–,–,–,–,–
Oc1c(C(Nc2cccc3cccnc23)c2ccccc2)ccc2cccnc12 (stereo not given),–,> 100,–,> 100,–,7.58,–,–,–,> 100,–,–,78.8,> 100,> 100,–,–,–,–,–
COc1cc([C@@H]2OC[C@@H]3C(c4cc(OC)c5c(c4)OCO5)OC[C@@H]32)cc(OC)c1OC (stereo not given in full),–,> 100,–,> 100,–,–,–,> 100,–,> 100,–,> 100,> 100,> 100,> 100,–,–,> 100,–,–
CCOc1ccccc1N1C(=O)C(=O)C(c2nc3ccccc3o2)C(=O)C1=O,–,65,–,> 100,–,> 100,–,> 100,–,> 100,–,> 100,> 100,> 100,> 100,–,–,–,–,–
COc1ccc2c(c1)c(=O)oc1cc(OC/C(C)=N\O)ccc12,> 100,> 100,> 100,> 100,–,–,99.7,> 100,48.3,> 100,14.9,42.9,> 100,> 100,> 100,> 100,42.9,> 100,> 100,> 100
CP1(=O)CCCCC1,–,> 100,–,> 100,–,> 100,–,> 100,–,> 100,–,> 100,> 100,> 100,> 100,–,–,–,–,–
O=[N+]([O-])c1cc(C(F)(F)F)cc([N+](=O)[O-])c1CCl,–,8.21,–,4.14,–,3.21,–,14.6,–,19.9,–,8.77,0.722,0.274,10.5,–,–,–,–,–

# Source: PubChem BioAssay (NCI)
